From publication PMC8151276, “An Integrated Approach toward NanoBRET Tracers for Analysis of GPCR Ligand Engagement” (Molecules, 2021)

Experiments:
Assay type in all cases: binding
[1] = target: T1, AGTR1 (Homo sapiens, UniProt P30556); test: NanoBRET screen HiBiT-AGTR1 in HEK293; conditions: AGTR1
T1 construct: purchased Promega (in-house HiBiT-GPCR construct library, NanoBRET)
T1 sequence (P30556 1-359): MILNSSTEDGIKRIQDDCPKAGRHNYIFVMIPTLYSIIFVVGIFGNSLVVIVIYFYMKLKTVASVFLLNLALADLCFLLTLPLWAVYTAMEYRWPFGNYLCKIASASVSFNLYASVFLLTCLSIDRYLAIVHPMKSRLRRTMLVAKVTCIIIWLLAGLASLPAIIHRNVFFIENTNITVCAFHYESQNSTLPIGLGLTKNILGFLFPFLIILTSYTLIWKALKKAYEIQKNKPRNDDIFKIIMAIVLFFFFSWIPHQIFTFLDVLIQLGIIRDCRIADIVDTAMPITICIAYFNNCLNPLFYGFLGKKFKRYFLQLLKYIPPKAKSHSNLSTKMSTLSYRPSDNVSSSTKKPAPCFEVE
Experimental: (§1) Each tracer candidate was screened across the entire library of HiBiT-GPCR constructs using NanoBRET as the detection modality. As depicted in Figure 4A, the specificity of interactions was evaluated through decrease in BRET due to competitive displacement of a bound tracer by excess parental compound. Each tracer was analyzed for binding to each HiBiT-GPCR fusion in the absence and in the presence of competing parental compound. Briefly, HEK293 cells were transfected with HiBiT-GPCR constructs diluted into promoterless DNA to reduce expression and maximize translocation to the cell surface. Each tracer candidate was then screened at concentrations of 1 μM and 0.1 μM across cells expressing these fusions. Cells were treated for 1.5 h with tracer either alone or in the presence of 20 μM competing parental compound (i.e., control). BRET was measured upon addition of purified LgBiT and subsequent complementation with HiBiT genetically fused to a GPCR. The specificity of interactions was assessed through a decrease in BRET signal due to competitive displacement of the bound tracer. To further gauge the robustness of these interactions, the fold response over the control (i.e., BRETtracer/BRETcontrol) was calculated. We chose a 1.5-fold response, which translates to ≥7-fold signal over noise as the minimal threshold required to score an interaction as positive. […]. Below we highlight the screening results obtained for our exemplary fluorescent tracers based on Clozapine, Amitriptyline and AZD1283.
(§2) HiBiT-GPCR DNA constructs were diluted in 10 mM Tris pH 8 to a final concentration of 0.01 μg/μL, arrayed in 96-well plates and stored at −20 °C. For transfection, HEK293 cells were suspended in Opti-MEM (without phenol red) supplemented with 2% fetal bovine serum (Seradigm) and 100 units/mL penicillin–streptomycin (Gibco) at a final concentration of 220,000 cells/mL and dispensed into white 96-well plates at 90 μL/well. Subsequent transfections and screens were carried using an Agilent Bravo Automated Liquid Handling Platform. First, the 96-well HiBiT DNA arrays were diluted 25-fold in Opti-MEM (without serum or phenol red) to a final concentration of 0.0004 μg/μL and 20 μL of the diluted DNAs were transferred into new 96-well plates. Next, promoterless carrier DNA (1 μg/μL) was diluted 25-fold (0.04 μg/μL) and then dispensed into the diluted arrays at 20 μL/well. Following brief mixing, Viafect transfection reagent (Promega) diluted 16-fold into Opti-MEM was dispensed into the plates at 40 μL/well. After mixing by pipetting, plates were incubated for 10 min on the pipetting station deck. The DNA-transfection reagent complexes were then added to plates containing cells. To facilitate the screen, 10 μL of DNA-transfection reagent complexes were added in duplicates to the top 4 and bottom 4 rows, resulting in two identical 48-well arrays per plate. Plates with transfected cells were incubated for 18–20 h at 37 °C/5% CO2. A screen of each tracer across the entire library using two different concentrations requires duplicate plates of transfected cells. Depending on the number of tracers being screened, transfections can be scaled up using the same ratios. The next day, for each tracer, four 20× screening solutions in tracer dilution buffer (Promega) were prepared: two duplicates at final concentration of 20 μM and two duplicates at a final concentration of 2 μM. A competing unmodified compound was added to one of each duplicate at a final concentration of 400 μM. The four resulting solutions were diluted 4-fold in Opti-MEM without serum or phenol red to generate 5× solutions (5 µM and 0.5 µM tracer +/− 100 μM competing compound). To screen the library, a BioTek MultiFlo FX liquid dispenser was used to dispense 22.5 µL of tracer solution to the top 4 rows and 22.5 µL tracer + competing compound solution to the 4 bottom rows. Plates were briefly mixed on an orbital shaker and incubated for 1.5 h at room temperature. […]

[2] = target: T2, AVPR2 (Homo sapiens, UniProt P30518); test: NanoBRET screen HiBiT-AVPR2 in HEK293; conditions: AVPR2
T2 construct: purchased Promega (in-house HiBiT-GPCR construct library, NanoBRET)
T2 sequence (P30518 whole entry): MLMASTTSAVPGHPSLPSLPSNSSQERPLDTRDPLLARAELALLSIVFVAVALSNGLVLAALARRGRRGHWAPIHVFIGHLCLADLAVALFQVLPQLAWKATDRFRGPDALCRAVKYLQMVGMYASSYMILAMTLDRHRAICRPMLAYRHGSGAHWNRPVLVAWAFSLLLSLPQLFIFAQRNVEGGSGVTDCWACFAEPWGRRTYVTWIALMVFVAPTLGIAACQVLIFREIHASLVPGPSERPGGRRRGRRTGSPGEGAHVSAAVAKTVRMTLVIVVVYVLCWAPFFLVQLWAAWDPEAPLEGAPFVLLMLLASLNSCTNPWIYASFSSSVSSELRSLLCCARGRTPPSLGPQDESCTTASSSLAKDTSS
Experimental: as §1, §2

[3] = target: T3, CXCR5 (Homo sapiens, UniProt P32302); test: NanoBRET screen HiBiT-CXCR5 in HEK293; conditions: CXCR5
T3 construct: purchased Promega (in-house HiBiT-GPCR construct library, NanoBRET)
T3 sequence (P32302 1-372): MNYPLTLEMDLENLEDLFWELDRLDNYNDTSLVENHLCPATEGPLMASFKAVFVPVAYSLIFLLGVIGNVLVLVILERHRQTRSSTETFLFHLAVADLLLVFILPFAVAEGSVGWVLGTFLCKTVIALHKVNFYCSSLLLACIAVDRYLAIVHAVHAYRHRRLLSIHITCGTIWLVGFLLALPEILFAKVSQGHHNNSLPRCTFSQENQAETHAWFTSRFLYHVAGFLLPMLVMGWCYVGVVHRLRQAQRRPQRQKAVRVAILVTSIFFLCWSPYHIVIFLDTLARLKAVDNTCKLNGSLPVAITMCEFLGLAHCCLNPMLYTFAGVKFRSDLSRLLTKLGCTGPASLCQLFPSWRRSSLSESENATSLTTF
Experimental: as §1, §2

[4] = target: T4, C5AR2 (Homo sapiens, UniProt Q9P296); test: NanoBRET screen HiBiT-C5AR2 in HEK293; conditions: C5AR2
T4 construct: purchased Promega (in-house HiBiT-GPCR construct library, NanoBRET)
T4 sequence (Q9P296 whole entry): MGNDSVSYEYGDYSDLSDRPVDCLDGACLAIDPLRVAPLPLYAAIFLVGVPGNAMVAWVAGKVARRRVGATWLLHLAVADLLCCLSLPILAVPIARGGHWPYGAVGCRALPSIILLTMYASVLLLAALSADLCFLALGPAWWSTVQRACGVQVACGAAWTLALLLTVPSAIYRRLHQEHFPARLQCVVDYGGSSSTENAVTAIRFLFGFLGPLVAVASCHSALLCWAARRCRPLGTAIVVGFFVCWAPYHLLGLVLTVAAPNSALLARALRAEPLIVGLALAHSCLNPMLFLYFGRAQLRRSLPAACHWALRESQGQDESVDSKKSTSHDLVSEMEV
Experimental: as §1, §2

[5] = target: T5, GHSR (Homo sapiens, UniProt Q92847); test: NanoBRET screen HiBiT-GHSR in HEK293; conditions: GHSR
T5 construct: purchased Promega (in-house HiBiT-GPCR construct library, NanoBRET)
T5 sequence (Q92847 whole entry): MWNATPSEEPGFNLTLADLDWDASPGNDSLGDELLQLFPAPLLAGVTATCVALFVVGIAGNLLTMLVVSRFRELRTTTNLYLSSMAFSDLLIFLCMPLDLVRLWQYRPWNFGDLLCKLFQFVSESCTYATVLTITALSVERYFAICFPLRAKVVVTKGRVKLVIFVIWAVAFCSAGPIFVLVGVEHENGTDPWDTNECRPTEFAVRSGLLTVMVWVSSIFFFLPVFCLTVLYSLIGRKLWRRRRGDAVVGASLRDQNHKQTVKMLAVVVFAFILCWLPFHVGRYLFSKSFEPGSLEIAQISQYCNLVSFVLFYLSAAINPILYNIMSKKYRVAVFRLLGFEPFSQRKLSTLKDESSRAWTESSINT
Experimental: as §1, §2

[6] = target: T6, CNR1 (Homo sapiens, UniProt P21554); test: NanoBRET screen HiBiT-CNR1 in HEK293; conditions: CNR1
T6 construct: purchased Promega (in-house HiBiT-GPCR construct library, NanoBRET)
T6 sequence (P21554 whole entry): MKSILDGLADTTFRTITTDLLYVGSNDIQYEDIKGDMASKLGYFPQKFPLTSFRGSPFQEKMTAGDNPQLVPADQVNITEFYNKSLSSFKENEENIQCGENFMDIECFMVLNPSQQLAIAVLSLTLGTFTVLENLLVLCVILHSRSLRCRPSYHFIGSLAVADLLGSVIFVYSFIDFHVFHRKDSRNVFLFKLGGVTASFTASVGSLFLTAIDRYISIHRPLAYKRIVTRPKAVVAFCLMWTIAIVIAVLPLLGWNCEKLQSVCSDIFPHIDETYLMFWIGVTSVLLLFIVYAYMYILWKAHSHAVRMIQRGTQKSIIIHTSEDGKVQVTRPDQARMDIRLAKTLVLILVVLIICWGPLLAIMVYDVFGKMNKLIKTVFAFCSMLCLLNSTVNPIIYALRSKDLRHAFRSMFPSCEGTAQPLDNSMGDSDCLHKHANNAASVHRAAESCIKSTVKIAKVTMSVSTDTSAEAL
Experimental: as §1, §2

SMILES	NanoBRET Fold Response ([1]; tracer 0.1μM)	NanoBRET Fold Response ([1]; tracer 1μM)	NanoBRET Fold Response ([2]; tracer 0.1μM)	NanoBRET Fold Response ([2]; tracer 1μM)	NanoBRET Fold Response ([3]; tracer 0.1μM)	NanoBRET Fold Response ([3]; tracer 1μM)	NanoBRET Fold Response ([4]; tracer 0.1μM)	NanoBRET Fold Response ([4]; tracer 1μM)	NanoBRET Fold Response ([5]; tracer 0.1μM)	NanoBRET Fold Response ([5]; tracer 1μM)	NanoBRET Fold Response ([6]; tracer 0.1μM)	NanoBRET Fold Response ([6]; tracer 1μM)
Cc1nc2n(c(=O)c1CCN1CCC(c3noc4cc(F)ccc34)CC1)CCCC2OC(=O)NCCOCCOCCOCCOCCNC(=O)CCc1ccc2n1[B-](F)(F)[N+]1=C(c3ccc[nH]3)C=CC1=C2 (stereo not drawn) [Risperidone-2-NB590]	0.99	0.98	1.04	1.01	1.10	0.93	1.06	1.07	1.06	1.02	1.00	1.02
CC(C)N(CC[C@H](c1ccccc1)c1cc(CCNC(=O)CCOCCOCCOCCOCCNC(=O)CCc2ccc3n2[B-](F)(F)[N+]2=C(c4ccc[nH]4)C=CC2=C3)ccc1O)C(C)C [Tolterodine-2-NB590]	1.12	1.00	1.06	1.06	1.31	1.00	0.98	0.92	0.95	1.11	1.03	1.14
CC(C)N(CC[C@H](c1ccccc1)c1cc(CCNC(=O)c2ccc(CNC(=O)CCc3ccc4n3[B-](F)(F)[N+]3=C(c5ccc[nH]5)C=CC3=C4)cc2)ccc1O)C(C)C [Tolterodine-BZ-NB590]	1.06	1.00	0.97	1.05	0.86	0.91	1.05	1.08	1.00	1.06	1.01	0.13
CCCn1c(=O)c2[nH]c(-c3ccc(OCC(=O)NCCNC(=O)CCOCCNC(=O)c4ccc(CNC(=O)CCc5ccc6n5[B-](F)(F)[N+]5=C(c7ccc[nH]7)C=CC5=C6)cc4)cc3)nc2n(CCC)c1=O [XAC-3-NB590]	1.24	1.19	0.73	0.91	1.23	0.87	1.02	1.01	1.07	1.02	1.01	1.00
